Like-named read-outs stand apart in the source and are kept apart here.
Legend:
[1] = molecular target: T1, human GIP receptor (Homo sapiens, UniProt P48546); assay: biochemical; assay type: binding; conditions: read-out: (% Inh 10 nm, GIP-LF Assay)
T1 construct: expressed in transfected cells; host or cells: HEK293 (HEK-GIPR), membranes
T1 sequence (P48546 22-466): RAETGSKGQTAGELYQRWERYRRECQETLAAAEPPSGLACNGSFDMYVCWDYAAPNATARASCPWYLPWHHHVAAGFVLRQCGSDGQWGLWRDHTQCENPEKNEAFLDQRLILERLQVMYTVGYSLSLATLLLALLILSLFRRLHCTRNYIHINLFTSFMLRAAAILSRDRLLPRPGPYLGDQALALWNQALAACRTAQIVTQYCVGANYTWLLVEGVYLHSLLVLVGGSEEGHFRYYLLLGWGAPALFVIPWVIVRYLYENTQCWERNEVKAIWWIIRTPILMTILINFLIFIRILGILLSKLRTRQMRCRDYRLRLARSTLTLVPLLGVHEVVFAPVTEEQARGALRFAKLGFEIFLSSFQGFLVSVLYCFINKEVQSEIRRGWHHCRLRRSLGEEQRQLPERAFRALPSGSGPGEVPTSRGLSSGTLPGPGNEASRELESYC

[2] = assay type: in vivo, NIH/Swiss mice
Protocol: (§1) In FIG. 3A, bars represent mean±sd, n=6-10. […] Gavage (1.5 g/kg) was given at t=0, Sample was taken at t=30 min. […] In FIG. 3B, points represent mean±sem, n=8-15.
Peptide was injected IP at t=−5 minutes into 4-hour fasted NIH/Swiss female mice. […] In FIG. 17 points represent mean+/−sem. […] Samples were taken at t=60, t=120 and t=180.

[3] = assay type: in vivo, NIH/Swiss mice; conditions: 80 nmol/kg, AUC240
Protocol: as §1
Points represent mean±sem.

Structure (SMILES) | inhibition at 0.01 µM [1] | OGTT/GL (%) ([2]; 30 nmol/kg) | Basal Glucose Lowering at Peptide Conc. of 80 nmol/kg [3] | OGTT/GL (%) ([2]; 350 nmol/kg)
CC[C@H](C)[C@H](NC(=O)[C@H](CCCCN)NC(=O)[C@H](CC(=O)O)NC(=O)[C@H](CC(C)C)NC(=O)[C@H](C)NC(=O)[C@@H](NC(=O)[C@H](CO)NC(=O)[C@H](Cc1ccc(O)cc1)NC(=O)[C@H](CC(=O)O)NC(=O)[C@H](CO)NC(=O)[C@@H](NC(=O)[C@H](Cc1ccccc1)NC(=O)[C@@H](NC(=O)CNC(=O)[C@H](CCC(=O)O)NC(=O)CNC(=O)[C@@H](N)Cc1c[nH]cn1)[C@@H](C)O)[C@@H](C)CC)[C@@H](C)CC)C(=O)N[C@@H](C)C(=O)N[C@@H](CCC(N)=O)C(=O)N[C@@H](CCC(N)=O)C(=O)N[C@@H](CCC(=O)O)C(=O)N[C@@H](Cc1ccccc1)C(=O)N[C@H](C(=O)N[C@@H](CC(N)=O)C(=O)N[C@@H](Cc1c[nH]c2ccccc12)C(=O)N[C@@H](CC(C)C)C(=O)N[C@@H](CC(C)C)C(=O)N[C@@H](C)C(=O)N[C@@H](CCC(N)=O)C(=O)N[C@@H](CCCCN)C(=O)N1CCC[C@H]1C(=O)N[C@@H](CCCCN)C(=O)N[C@@H](CCCCN)C(=O)N[C@H](C(=O)N[C@@H](CCCNC(=N)N)C(=O)N[C@@H](Cc1ccc(O)cc1)C(=O)N[C@@H](CO)C(N)=O)[C@@H](C)CC)C(C)C [Compound 0601GIP4841] | 56.6% |  |  | 
CC[C@H](C)[C@H](NC(=O)[C@H](CO)NC(=O)[C@H](Cc1ccc(O)cc1)NC(=O)[C@H](CC(=O)O)NC(=O)[C@H](CO)NC(=O)[C@@H](NC(=O)[C@H](Cc1ccccc1)NC(=O)[C@@H](NC(=O)CNC(=O)[C@H](CCC(=O)O)NC(=O)[C@@H](C)NC(=O)[C@@H](N)Cc1ccc(O)cc1)[C@@H](C)O)[C@@H](C)CC)C(=O)N[C@@H](C)C(=O)N[C@@H](CCSC)C(=O)N[C@@H](CC(=O)O)C(=O)N[C@@H](CCCCN)C(=O)N[C@H](C(=O)N[C@@H](Cc1c[nH]cn1)C(=O)N[C@@H](CCC(N)=O)C(=O)N[C@@H](CCC(N)=O)C(=O)N[C@@H](CC(=O)O)C(=O)N[C@@H](Cc1ccccc1)C(=O)N[C@H](C(=O)N[C@@H](CCC(N)=O)C(=O)N[C@@H](Cc1c[nH]c2ccccc12)C(=O)N[C@@H](CC(C)C)C(=O)N[C@@H](CC(C)C)C(=O)N[C@@H](C)C(=O)N[C@@H](CCC(N)=O)C(=O)N[C@@H](CCCCN)C(=O)N1CCC[C@H]1C(=O)N[C@@H](CO)C(=O)N[C@@H](CO)C(=O)NCC(=O)N[C@@H](C)C(=O)N1CCC[C@H]1C(=O)N1CCC[C@H]1C(=O)N1CCC[C@H]1C(=O)N[C@@H](CO)C(N)=O)C(C)C)[C@@H](C)CC [Compound 0601GIP4846] |  | −25, % | −6%, | 
CC[C@H](C)[C@H](NC(=O)[C@H](CO)NC(=O)[C@H](Cc1ccc(O)cc1)NC(=O)[C@H](CC(=O)O)NC(=O)[C@H](CO)NC(=O)[C@@H](NC(=O)[C@H](Cc1ccccc1)NC(=O)[C@@H](NC(=O)CNC(=O)[C@H](CCC(=O)O)NC(=O)[C@@H](C)NC(=O)[C@@H](N)Cc1ccc(O)cc1)[C@@H](C)O)[C@@H](C)CC)C(=O)N[C@@H](C)C(=O)N[C@@H](CCSC)C(=O)N[C@@H](CC(=O)O)C(=O)N[C@@H](CCCCN)C(=O)N[C@H](C(=O)N[C@@H](Cc1c[nH]cn1)C(=O)N[C@@H](CCC(N)=O)C(=O)N[C@@H](CCC(N)=O)C(=O)N[C@@H](CC(=O)O)C(=O)N[C@@H](Cc1ccccc1)C(=O)N[C@H](C(=O)N[C@@H](CC(N)=O)C(=O)N[C@@H](Cc1c[nH]c2ccccc12)C(=O)N[C@@H](CC(C)C)C(=O)N[C@@H](CC(C)C)C(=O)N[C@@H](C)C(=O)N[C@@H](CCC(N)=O)C(=O)N[C@@H](CCCCN)C(=O)N1CCC[C@H]1C(=O)N[C@@H](CO)C(=O)N[C@@H](CO)C(=O)NCC(=O)N[C@@H](C)C(=O)N1CCC[C@H]1C(=O)NCC(=O)N1CCC[C@H]1C(=O)N[C@@H](CO)C(N)=O)C(C)C)[C@@H](C)CC [Compound 0601GIP4952] |  | −21, % | −1, % | 
CC[C@H](C)[C@H](NC(=O)[C@H](CO)NC(=O)[C@H](Cc1ccc(O)cc1)NC(=O)[C@H](CC(=O)O)NC(=O)[C@H](CO)NC(=O)[C@@H](NC(=O)[C@H](Cc1ccccc1)NC(=O)[C@@H](NC(=O)CNC(=O)[C@H](CCC(=O)O)NC(=O)[C@@H](C)NC(=O)[C@H](Cc1ccc(O)cc1)NC)[C@@H](C)O)[C@@H](C)CC)C(=O)N[C@@H](C)C(=O)N[C@@H](CCSC)C(=O)N[C@@H](CC(=O)O)C(=O)N[C@@H](CCCCN)C(=O)N[C@H](C(=O)N[C@@H](Cc1c[nH]cn1)C(=O)N[C@@H](CCC(N)=O)C(=O)N[C@@H](CCC(N)=O)C(=O)N[C@@H](CC(=O)O)C(=O)N[C@@H](Cc1ccccc1)C(=O)N[C@H](C(=O)N[C@@H](CC(N)=O)C(=O)N[C@@H](Cc1c[nH]c2ccccc12)C(=O)N[C@@H](CC(C)C)C(=O)N[C@@H](CC(C)C)C(=O)N[C@@H](C)C(=O)N[C@@H](CCC(N)=O)C(=O)N[C@@H](CCCCN)C(=O)N1CCC[C@H]1C(=O)N[C@@H](CO)C(=O)N[C@@H](CO)C(=O)NCC(=O)N[C@@H](C)C(=O)N1CCC[C@H]1C(=O)N1CCC[C@H]1C(=O)N1CCC[C@H]1C(=O)N[C@@H](CO)C(N)=O)C(C)C)[C@@H](C)CC [Compound 0601GIP4238] |  |  | −6%, AUC240 | −25%
CC[C@H](C)[C@H](NC(=O)[C@H](CO)NC(=O)[C@H](Cc1ccc(O)cc1)NC(=O)[C@H](CC(=O)O)NC(=O)[C@H](CO)NC(=O)[C@@H](NC(=O)[C@H](Cc1ccccc1)NC(=O)[C@@H](NC(=O)CNC(=O)[C@H](CCC(=O)O)NC(=O)[C@@H](C)NC(=O)[C@@H](N)Cc1ccc(O)cc1)[C@@H](C)O)[C@@H](C)CC)C(=O)N[C@@H](C)C(=O)N[C@@H](CCSC)C(=O)N[C@@H](CC(=O)O)C(=O)N[C@@H](CCCCN)C(=O)N[C@H](C(=O)N[C@@H](Cc1c[nH]cn1)C(=O)N[C@@H](CCC(N)=O)C(=O)N[C@@H](CCC(N)=O)C(=O)N[C@@H](CC(=O)O)C(=O)N[C@@H](Cc1ccccc1)C(=O)N[C@H](C(=O)N[C@@H](CC(N)=O)C(=O)N[C@@H](Cc1c[nH]c2ccccc12)C(=O)N[C@@H](CC(C)C)C(=O)N[C@@H](CC(C)C)C(=O)N[C@@H](C)C(=O)N[C@@H](CCC(N)=O)C(=O)N[C@@H](CCCCN)C(=O)N1CCC[C@H]1C(=O)N[C@@H](CCCCN)C(=O)N[C@@H](CC(C)C)C(=O)N[C@H](C(=O)N[C@@H](CCCCN)C(=O)N[C@@H](CC(C)C)C(=O)N[C@H](C(=O)N[C@@H](CCCCN)C(=O)N[C@@H](CO)C(N)=O)[C@@H](C)CC)[C@@H](C)CC)C(C)C)[C@@H](C)CC [0601GIP4346] |  | −20, 30% | −10%, AUC240 | 

— US8497240B2 (priority 2006, dated 2013)
